According to patent US8536148B2, “Disabling autophagy as a treatment for lysosomal storage diseases” (The United States of America, as Represented by the …, priority 2009, dated 2013):
Entries after “also recorded” stand apart in the source; their conditions may differ.

Columns and labels:
TA muscle = type: in vivo
autophagy = test: Inhibition of autophagy by 3-MA injected into TA muscle (histology, LC3, glycogen content); type: in vivo; settings: 40 l of 5 mg/ml per TA, two injections six days apart, harvested two to three days after second injection
Description: 3-MA was administered using the highest possible safety dose (40 l of 5 mg/ml per TA) determined from the above-described study. Two injections (six days apart) were given into TA muscle. Two to three days after the second injection, the treated muscles were harvested to examine the histology, the level of autophagy marker LC3, and the glycogen content.

[1] = intraperitoneal; Sigma MSDS; cited from earlier work
GAA−/− mice [2] = test: Effect of ERT on glycogen levels in GAA−/− mice (biochemical glycogen measurement, PAS staining); type: in vivo, mouse; settings: for Treated vs. Untreated GAA−/− % Reduction / Glycogen level, Treated / Excess Glycogen: GAA−/−; for Glycogen level, Treated: rhGAA 100 mg/kg i.v., three injections every other week; for Excess Glycogen: treated value minus wild type level
Description: (§1) Glycogen concentration in skeletal muscle was evaluated by measuring the amount of glucose released after treatment of tissue extracts with Aspergillus niger amyloglucosidase as described (Kikuchi et al., J. Clin. Invest., 101:827-833, 1998), except that the enzymatic digestion was carried out at 55° C. rather than 37° C. (Kikuchi et al., J. Clin. Invest., 101:827-833, 1998). Tissues were fixed in 3% glutaraldehyde (EM grade, Electron Microscopy sciences, Hatfield, Pa.) in 0.2M Sodium Cacodylate buffer for 4 h at 4° C., washed in 0.1M Sodium Cacodylate buffer, and stored at 4° C. in the same buffer. Samples were then imbedded in paraffin, sectioned, and stained with periodic acid-Schiff (PAS) by standard methods.
(§2) Two and a half month-old GAA−/−, MLCcre: Atg7F/F: GAA−/−, and HSAcre: Atg5F/F: GAA−/− mice received three intravenous injections of recombinant human α-glucosidase (rhGAA; Myozyme®, Genzyme Corporation, Framingham, Mass.) at a dose of 100 mg/kg every other week. To diminish a hypersensitivity reaction, diphenhydramine hydrochloride was injected intraperitoneally at a dose of 5 mg/kg 15 minutes before the second and third injections of rhGAA. The mice were sacrificed 7 days after the last injection. Twelve GAA−/−, 11 HSAcre: Atg5F/F: GAA−/−, and 9 MLCcre: Atg7F/F: GAA−/− were treated with rhGAA.

[3] = system: MLCcre: Atg7F/F: GAA−/− mice; test: Effect of ERT on glycogen levels in MLCcre:Atg7F/F:GAA−/− mice (biochemical glycogen measurement, PAS staining); type: in vivo, mouse; settings: for Glycogen level after ERT (in words): MLCcre:Atg7F/F:GAA−/− mice, fast muscle; for Glycogen level, Treated: rhGAA 100 mg/kg i.v., three injections every other week; for Excess Glycogen: treated value minus wild type level
Description: as §1, §2

[4] = system: HSAcre: Atg5F/F: GAA−/− mice; test: Effect of ERT on glycogen levels in HSAcre:Atg5F/F:GAA−/− mice (biochemical glycogen measurement, PAS staining); type: in vivo, mouse; settings: for Glycogen level, Treated: rhGAA 100 mg/kg i.v., three injections every other week; for Excess Glycogen: treated value minus wild type level
Description: as §1, §2

GAA−/− mice [5] = test: Effect of ERT on ubiquitinated (Ub) proteins in fast muscle of GAA−/− mice (FK2 immunoblot); type: in vivo, mouse; settings: gastrocnemius total lysates, ERT-treated vs untreated
Description: Whole muscle tissues were homogenized in RIPA buffer (PBS, 1% NP40, 0.5% Sodium deoxycholate, 0.1% SDS) containing a protease inhibitor cocktail tablet (Roche Diagnostics, Mannheim, Germany). Samples were centrifuged for 30 min at 13,000 rpm at 4° C. Alternatively, detergent-soluble and -insoluble fractions from muscle tissues were obtained as previously described (Hara et al. 2006). Briefly, muscle tissues were homogenized in ice-cold 0.25 M sucrose buffer (50 mM Tris-HCl pH 7.4, 1 mM EDTA; ˜350 μl/100 mg tissue) with protease inhibitors. Homogenates were centrifuged at a low speed for […] at 4° C., and the supernatants were lysed with an equal volume of cold sucrose buffer with 1% Triton X-100. Lysates were then centrifuged at 13,000 g for […] at 4° C. to collect fractions soluble in 0.5% Triton-X-100; the pellets (Triton-X-100-insoluble fractions) were resuspended in 1% SDS in PBS.
Protein concentrations of the supernatants of the total lysates or soluble fractions were measured using Bio-Rad Protein Assay (Bio-Rad Laboratories, Inc., Hercules, Calif.). Equal amounts of protein were run on SDS-PAGE gels (Invitrogen) followed by electro-transfer onto nitrocellulose membranes (Invitrogen). […]

[6] = system: HSAcre: Atg5F/F: GAA−/− mice; test: Effect of ERT on ubiquitinated (Ub) proteins in fast muscle of HSAcre:Atg5F/F:GAA−/− mice (FK2 immunoblot, immunostaining); type: in vivo, mouse; settings: ERT-treated vs untreated
Description: (§3) White gastrocnemius, soleus, and psoas muscles were removed immediately after sacrifice and pinned to Sylgaard-coated dishes for fixation with 2% paraformaldehyde in 0.1M phosphate buffer for 1 h, followed by fixation in methanol (−20° C.) for 6 min. Single fibers were obtained by manual teasing. Fibers were placed in a 24-well plate in Blocking Reagent (Vector Laboratories, Burlingame, Calif.) for 1 h. The fibers were then permeabilized, incubated with primary antibody overnight at 4° C., washed, incubated with secondary antibody for 2 h, washed again, and mounted in Vectashield (Vector Laboratories, Burlingame, Calif.) on a glass slide. The fibers were analyzed using a Zeiss 510 META confocal microscope. The white part of gastrocnemius and psoas muscles in mice are a good source of glycolytic fast-twitch type II fibers (referred to as fast fibers), whereas soleus muscle is a good source of oxidative slow-twitch type I fibers (referred to as slow fibers). At least three animals from each genotype were used to obtain single muscle fibers for immunostaining. For each immunostaining and for confocal analysis, at least 20 fibers were isolated from each of the three muscle groups. […]
Protein concentrations of the supernatants of the total lysates or soluble fractions were measured using Bio-Rad Protein Assay (Bio-Rad Laboratories, Inc., Hercules, Calif.). […]

GAA−/− mice [7] = test: LAMP-1/LC3 immunostaining of single fast (psoas) fibers after ERT, GAA−/− mice; type: in vivo, mouse; settings: ERT-treated
Description: as §3

[8] = system: MLCcre: Atg7F/F: GAA−/− mice; test: LAMP-1/LC3 immunostaining of single fast (psoas) fibers after ERT, MLCcre:Atg7F/F:GAA−/− mice; type: in vivo, mouse; settings: ERT-treated
Description: as §3

Pompe disease = settings: cited from earlier work
[9] = system: genetically engineered mice that lack expression of GAA; settings: mice lacking GAA; cited from earlier work

Cn1cnc(N)c2ncnc1-2 [3-MA, 3-Methyladenine]
Highest possible safety dose (TA muscle; 40 l per TA (so in the source), intramuscular): 5 mg/mL | Toxicity / tolerability (TA muscle; mouse, in vivo, ip): no toxicity was observed | Inhibition of autophagy in the injected muscle (autophagy): did not inhibit autophagy effectively | ip LD50 dose [1]: 280 mg/kg

ERT: recombinant human α-glucosidase (rhGAA; Myozyme®, Genzyme Corporation) given intravenously as enzyme replacement therapy
Glycogen clearance after ERT (in words) (GAA−/− mice [2]; GAA−/− mice with genetically intact autophagy, skeletal muscle): cleared glycogen poorly | Treated vs. Untreated GAA−/− % Reduction (GAA−/− mice [2]; Gastroc): 27% | Glycogen level, Treated (GAA−/− mice [2]; Gastroc): 52.5 ± 22.7 μg glucose/hr/mg protein | Excess Glycogen (GAA−/− mice [2]; Gastroc): 48.1 μg glucose/hr/mg protein | Treated vs. Untreated GAA−/− % Reduction (GAA−/− mice [2]; Heart): 100% | Glycogen level, Treated (GAA−/− mice [2]; Heart): 0.6 ± 1.2 μg glucose/hr/mg protein | Excess Glycogen (GAA−/− mice [2]; Heart): 0 μg glucose/hr/mg protein | Treated vs. Untreated GAA−/− % Reduction (GAA−/− mice [2]; Quad): 28% | Glycogen level, Treated (GAA−/− mice [2]; Quad): 54.5 ± 29.6 μg glucose/hr/mg protein | Excess Glycogen (GAA−/− mice [2]; Quad): 50.1 μg glucose/hr/mg protein | Glycogen level after ERT (in words) [3]: reduction of glycogen levels to normal or near normal levels | Glycogen level after ERT (in words) ([3]; listed as recombinant enzyme): dramatic reduction in the glycogen level approaching wild type levels | Treated vs. Untreated GAA−/− % Reduction ([3]; MLCcre:Atg7F/F:GAA−/−, Gastroc): 88% | Glycogen level, Treated ([3]; MLCcre:Atg7F/F:GAA−/−, Gastroc): 8.6 ± 8.9 μg glucose/hr/mg protein | Excess Glycogen ([3]; MLCcre:Atg7F/F:GAA−/−, Gastroc): 4.2 μg glucose/hr/mg protein | Treated vs. Untreated GAA−/− % Reduction ([3]; MLCcre:Atg7F/F:GAA−/−, Heart): 100% | Glycogen level, Treated ([3]; MLCcre:Atg7F/F:GAA−/−, Heart): 0.2 ± 0.4 μg glucose/hr/mg protein | Excess Glycogen ([3]; MLCcre:Atg7F/F:GAA−/−, Heart): 0 μg glucose/hr/mg protein | Treated vs. Untreated GAA−/− % Reduction ([3]; MLCcre:Atg7F/F:GAA−/−, Quad): 82% | Glycogen level, Treated ([3]; MLCcre:Atg7F/F:GAA−/−, Quad): 13.7 ± 10 μg glucose/hr/mg protein | Excess Glycogen ([3]; MLCcre:Atg7F/F:GAA−/−, Quad): 9.3 μg glucose/hr/mg protein | Glycogen clearance, PAS-stained sections ([3]; MLCcre:Atg7F/F:GAA−/−, fast (gastrocnemius) muscle, 4 month-old): near complete glycogen clearance | Glycogen level after ERT (in words) ([4]; HSAcre:Atg5F/F:GAA−/− mice, fast muscle): reduction of glycogen levels to normal or near normal levels; also recorded: complete removal of the accumulated glycogen | Treated vs. Untreated GAA−/− % Reduction ([4]; HSAcre:Atg5F/F:GAA−/−, Gastroc): 94% | Glycogen level, Treated ([4]; HSAcre:Atg5F/F:GAA−/−, Gastroc): 4.1 ± 4.9 μg glucose/hr/mg protein | Excess Glycogen ([4]; HSAcre:Atg5F/F:GAA−/−, Gastroc): 0 μg glucose/hr/mg protein | Treated vs. Untreated GAA−/− % Reduction ([4]; HSAcre:Atg5F/F:GAA−/−, Heart): 100% | Glycogen level, Treated ([4]; HSAcre:Atg5F/F:GAA−/−, Heart): 0.0 ± 0.0 μg glucose/hr/mg protein | Excess Glycogen ([4]; HSAcre:Atg5F/F:GAA−/−, Heart): 0 μg glucose/hr/mg protein | Treated vs. Untreated GAA−/− % Reduction ([4]; HSAcre:Atg5F/F:GAA−/−, Quad): 94% | Glycogen level, Treated ([4]; HSAcre:Atg5F/F:GAA−/−, Quad): 5.0 ± 4.9 μg glucose/hr/mg protein | Excess Glycogen ([4]; HSAcre:Atg5F/F:GAA−/−, Quad): 0.6 μg glucose/hr/mg protein | Glycogen clearance, PAS-stained sections ([4]; HSAcre:Atg5F/F:GAA−/−, fast (gastrocnemius) muscle, 4 month-old): near complete glycogen clearance | Amount of ubiquitinated (Ub) proteins, FK2 immunoblot (GAA−/− mice [5]): No difference in the amount of the Ub-proteins; also recorded: No reduction of ubiquitinated-proteins | Ub-proteins, FK2 immunostaining of single fast (psoas) myofibers [6]: clearly observed in untreated, but not in ERT-treated myofibers | Amount of ubiquitinated (Ub) proteins, FK2 immunoblot ([6]; gastrocnemius, soluble and non-soluble fractions): A significant drop in the amount of Ub-proteins; also recorded: significant decrease in the amount of ubiquitinated-proteins | Autophagic buildup (LC3 immunostaining) (GAA−/− mice [7]): this buildup persists in ERT-treated GAA−/− mice | Lysosomal size (LAMP-1 immunostaining) (GAA−/− mice [7]): even larger than those in the untreated fiber | Expanded lysosomes (LAMP-1 immunostaining) [8]: reduce in size and appear normal | Glycogen clearance from skeletal muscle (Pompe disease): less effective for glycogen clearance from skeletal muscle | Glycogen clearance in cardiac muscle (Pompe disease): effective for glycogen clearance in cardiac muscle | Glycogen clearance from type I muscle fibers [9]: effective in clearing gylcogen from type I muscle fibers | Glycogen clearance from type II muscle fibers [9]: not type II muscle fibers
